Laboratory results published in patent US6683110B1, “Methyl esters of substituted 4-oxo-2-butenoic acid for treatment of tuberculosis” (University of Central Florida, priority 2001, dated 2004).

Key:
in vivo = details: both sexes, mouse, ip, white mice, intraperitoneal injection of 2% solution in starch, 14 day observation
Procedure: Animal Toxicity Bioassay. Acute toxicity was studied on white mice of both sexes with weight ranging between 18-26 grams under intraperitoneal injection of 2% solution of tested compound in starch (the compound was dissolved in starch slime and injected) on the basis of 0.1 ml of solution per 10 g of the animal weight. Each dose was tested on the group of 6 animals that were observed during 14 day period. (This method was approved by the Pharmacology committee of Russian Ministry of Health and has been widely used since 1968.) Averaged lethal dose (LD50) of the compound was computed using results of experiments on 5-7 groups of animals using the method of Litchfield and Wilkinson. (Belenkii M. L. “Elements of quantative determination of the pharmacological effect,” Leningrad, 1963, 71 pages).
The acute toxicity of isoniazid is as following: LCLo (lowest published lethal concentration) for man is 100 mg/kg. […] All toxicity information about isoniazid can also be found on the web site: http://ntp-server.niehs.nih.gov/htdocs/Chem H&S/NTP Chem5/Radian54-85-3.html

[1] = tested on: M. tuberculosis (ATCC 25177); assay: BACTEC 460 TB radiometric growth inhibition bioassay (bacteriostatic activity); type: cell-based, Mycobacterium tuberculosis; details: final concentration of 0.1 mg/ml in Bactec 7H12 B+ medium; percent inhibition from growth index
Stability in solution = type: physicochemical; details: decomposes quickly when the solution is heated or stored for a long time, with formation of OF-12
man = details: cited from earlier work

With CCOc1ccc(C(=O)C=C(NN=C2c3ccccc3-c3ccccc32)C(=O)OC)cc1 [OF-12, 4-(4-Ethoxyphenyl)-2-(N′-fluoren-9-ylidenehydrazino)-4-oxobut-2-enoic acid methyl ester] the LD50 at 14 day (in vivo) was greater than 1500 mg/kg and the “percent activity against Mycobacterium tuberculosis” value (shortened to “percent activity”) [1] was 81%.
In the case of CCOc1ccc(C(=O)CC(O)(NN=C2c3ccccc3-c3ccccc32)C(=O)OC)cc1 (centres unmarked) [OF-13, 4-(4-Ethoxyphenyl)-2-(N′-fluoren-9-ylidenehydrazino)-2-hydroxy-4-oxobutyric acid methyl ester], the LD50 at 14 day (in vivo) is reported as greater than 1500 mg/kg, the “percent activity” value [1] is reported as 88% and the Stability in solutions (Stability in solution) is reported as “not stable in solutions”.
In the case of COC(=O)C(=CC(=O)C(C)(C)C)Nc1ccc(Br)cc1 [OF-15, 2-(4-Bromophenylamino)-5,5-dimethyl-4-oxohex-2-enoic acid methyl ester], the LD50 at 14 day (in vivo) is reported as greater than 1500 mg/kg and the “percent activity” value [1] is reported as 98%.
For NNC(=O)c1ccncc1 [isoniazid, isonicotinic acid hydrazide], the “acute ingestion leading to mild toxicity” value (man; adults, acute ingestion) is given as no less than 1.5 g, the “ingestion that may be fatal” value (man; adults, acute ingestion) is given as 6 to 10 g and the “ingestion usually fatal if not appropriately treated” value (man; adults, acute ingestion) is given as 15 g. The “LCLo (lowest published lethal concentration)” value (man; man) was 100 mg/kg.
